What was measured:
[1] = test system: Schistosoma mansoni cercariae; test: Activity against Schistosoma mansoni cercariae (survival/mobility in water); assay type: cell-based; settings: 500 μl/l final concentration of the active compound; PEG300/aquarium water; test period of 120 minutes
Protocol: Activity Against Schistosoma mansoni cercariae
[500 μl/l Final Concentration of the Active Compounds]
Snails (Biomphalaria glabrata) were infected by incubating each of them with 8 miracidia in 10 ml of water overnight. About 6 to 9 weeks after the infection, cercariae were obtained by irradiating the snails, which had been kept in darkness, with light, followed by collection of the swarming cercariae within 2 hours.
Such an amount of cercariae-containing water (1 or 2 ml, see below) was added to the test batches that each batch contained about 100 to 150 cercariae.
5 μl of active compound were mixed thoroughly with 25 μl of PEG300. 9 ml of aquarium water was then added, and the batch was shaken vigorously. After (delayed) addition of 1 ml of cercariae suspension, survival of the cercariae was in each case observed immediately using a stereomagnifier.

[2] = test system: cercariae of Schistosoma mansoni; settings: topical agent; Salafsky et al. 1998; cited from earlier work
[3] = test system: cercariae of Schistosoma mansoni; settings: topical, monkeys; Bruce et al. 1992; cited from earlier work
[4] = test system: cercariae of Schistosoma mansoni; settings: Fripp and Armstrong 1973; cited from earlier work

CCCCOC(=O)CN(CCCC)C(C)=O
activity of the active compounds against cercariae (classification 0-3) [1]: 1

CCN(CC)C(=O)c1cccc(C)c1 [N,N-Diethyl-m-toluamide (DEET), N,N-Diethyl-m-toluamide]
action against cercariae of Schistosoma mansoni [2]: acts against cercariae

O=C(Nc1ccc([N+](=O)[O-])cc1Cl)c1cc(Cl)ccc1O [Niclosamide]
action against the penetration of cercariae [3]: acts against the penetration of cercariae

Oc1c(Cl)cc(Cl)c(Cl)c1Cc1c(O)c(Cl)cc(Cl)c1Cl [hexachlorophene]
effect on cercariae of Schistosoma mansoni [4]: lethal effect
